Literature values in US20070135444A1, “Treatment of neuroblastoma” (priority 2002, published 2007).

Settings: pediatric phase I trial; no maximal dose tolerated reached up to this dose

## CS(=O)(=O)O.Cc1ccc(NC(=O)c2ccc(CN3CCN(C)CC3)cc2)cc1Nc1nccc(-c2cccnc2)n1 [SALT I]
  maximal dose tolerated: > 570 mg/m^2/day
